Assay results from patent publication US20170119727A1, “A THERAPEUTIC PROTOCOL FOR TREATING OVARIAN CANCER” (Bionomics Limited, priority 2014, published 2017).

Tests used:
[1] = tested on: Human umbilical vein endothelial cells (HUVECs), tumour type activated endothelial cells; experiment: Proliferation assay - activated endothelium (MTT); assay type: cell-based; settings: for IC50: Homo sapiens, HUVEC, tumour type activated endothelial cells (HUVECs), 48 hrs, read-out: HUBECs Tum: IC50; for potency against activated (tumor) versus quiescent (normal) endothelial cells: activated compared with quiescent endothelial cells
Protocol: Proliferation Assay—Activated Endothelium:
(§1) Human umbilical vein endothelial cells (CC-2519, Clonetics) were plated at 2500 cells/well in EGM2 (CC-3162, Clonetics) in a 96 well plate in triplicate. Cells were cultured overnight at 37° C. 5% CO2. Medium was subsequently replaced with fresh medium including the compound or negative control. Cells were cultured for a period of 48 hrs. An MTT assay was performed to measure changes in cell numbers. Briefly, 20 μl of MTT reagent was added to cells containing 100 μl of EGM2 and incubated at 37° C. for 2 hours. Absorbance was measured at 492 nm.

tubulin = experiment: Tubulin polymerization inhibition; assay type: biochemical
[2] = tested on: Human umbilical vein endothelial cells (HUVECs), normal quiescent type endothelial cells; experiment: Proliferation assay - quiescent endothelium (MTT); assay type: cell-based; settings: HUVEC, 48 hrs, read-out: HUBECs Norm: IC50
Protocol: Proliferation Assay—Quiescent Endothelium:
as §1, with “15000” for “2500”, “EBM2 (CC-3156, Clonetics)+0.5% FBS (CC-4101A, Clonetics)+GA-1000 (CC-4381A,” for “EGM2 (CC-3162,”, “EBM2+0.5% FBS” for “EGM2”

MCF-7 = experiment: Growth inhibition of cancer cell line (Sulforhodamine B or Systmex cell counting assay); assay type: cell-based; settings: Homo sapiens, MCF7, concentration required to inhibit net cell growth by 50%
[3] = tested on: MDA-MB-231 solid orthotopic tumours; experiment: Tumour growth inhibition, single agent; assay type: in vivo, Balb/c nu/nu mice; settings: Example 2 40 mg/kg i.v., two cycles; vs vehicle; significant from day 4 (p<0.001) through Day 70
Protocol: Balb/c nu/nu mice bearing MDA-MB-231 solid orthotopic tumours were treated with compound Example 2 at 40 mg/kg. Animals were i.v. dosed with a total of two cycles of Example 2 treatment. Each cycle was dosing on […] followed by a three week no-dosing period. Tumour growth represented as a ratio to initial tumour volume is shown over a total of 72-days.
Tumour growth as well as animal health were monitored for up to 72 days post-day 1 of treatment. […] Significant differences in tumour growth between Example 2 treated (n=64) and vehicle treated (n=20) animals were observed as early as day 4 (p<0.001; unpaired t-test; Prism® analysis) through to Day 70.

recurrent ovarian cancer = experiment: Phase I clinical trial: objective response (CA125 or RECIST); assay type: in vivo, female ovarian cancer subjects (patients); settings: combination with carboplatin and gemcitabine
Excerpt: (§2) A standard 3+3 Phase I design was used to determine the recommended dose of compound Example 2 with combination partners (b) and (c). In addition, this design also facilitated the determination of secondary endpoints including progression-free survival (PFS) and adverse event rates. Further correlative endpoints that measure the effect of the drug combination on compound Example 2 pharmacokinetics (PK) were also captured in this trial design.
(§3) The patient cohort selected for this Phase I clinical trial were female ovarian cancer subjects with a PFS interval of ≧4 months after first or second line platinum-based chemotherapy.
(§4) The dosing regime is outlined in FIG. 4. This protocol included compound Example 2 escalation at 12 or 16 mg/m^2 IV on days 2 and 9, carboplatin AUC4 on day 1, gemcitabine escalation 800 and 1000 mg/m^2 days 1 and 8. Treatment proceeded across a 21 day cycle for a maximum of 6 cycles. Treatment was followed by single agent maintenance with compound Example 2 at 16 mg/m^2 for a maximum of 6 additional cycles.
(§5) The key outcomes of this trial include the identification of the maximum tolerated dose (MTD) of compound Example 2 and combination partners (b) and (c), dose limiting toxicities and patient response measured according to CA125 levels or RECIST. Additional plasma biomarker studies that measure concentrations of ferritin, interleukin-8, interleukin-16 and macrophage inflammatory protein-1β provide correlative data relating to the PK of compound Example 2.

[4] = tested on: cisplatin resistant A2780Cis solid orthotopic tumours; experiment: Tumour growth inhibition, combination with carboplatin and gemcitabine; assay type: in vivo, Balb/c nu/nu mice; settings: Example 2 24 mg/kg + carboplatin 50 mg/kg + gemcitabine 12.5 mg/kg i.v.; triplet compared to carboplatin/gemcitabine doublet; up to 21 days
Protocol: (a) Example 2 Treatment in Combination with Carboplatin (Combination Partner (b)) and Gemcitabine (Combination Partner (c)).
Balb/c nu/nu mice bearing cisplatin resistant A2780Cis solid orthotopic tumours were treated with compound Example 2 at 24 mg/kg, carboplatin at 50 mg/kg and gemcitabine at 12.5 mg/kg. Animals were i.v. dosed with a single dose of carboplatin, two weekly doses of Example 2 and two weekly doses of gemcitabine. Each cycle of Example 2 and gemcitabine was dosing on days 1 and 8; and each cycle of carboplatin was dosing on day 1.
Tumour growth as well as animal health were monitored for up to 21 days post-day 1 of treatment.

[5] = Phase I clinical trial: dose limiting toxicities, adverse events, recommended dose; assay type: in vivo, female ovarian cancer subjects (patients)
Excerpt: as §2, §3, §4, §5

[6] = Dose level 1 (n = 6), combination with carboplatin and gemcitabine, all cycles
[7] = Dose level 2a (n = 3), combination with carboplatin and gemcitabine, all cycles
[8] = Dose level 2b (n = 60 as printed), combination with carboplatin and gemcitabine, all cycles

For `COc1cc(C(=O)c2c(C)oc3c(O)c(OC)ccc23)cc(OC)c1OC` [Example 1, 2-Methyl-7-hydroxy-3-(3,4,5-trimethoxybenzoyl)-6-methoxybenzofuran], the IC50 [1] was 0.1 to 1 nM, the “potency against activated (tumor) versus quiescent (normal) endothelial cells” value [1] was “high potency towards tumor endothelial cells (activated) over normal endothelial cells (quiescent)” and the tubulin polymerization inhibition (tubulin) was “potent tubulin polymerization inhibitor”. For the same molecule, the IC50 [2] was 10 to 100 nM and the IC50 (MCF-7) was 2 nM.
For `COc1ccc2c(C(=O)c3cc(OC)c(OC)c(OC)c3)c(Br)oc2c1` [Comparator D], the IC50 [1] was 100 to 1000 nM, the IC50 [2] was 100 to 1000 nM and the IC50 (MCF-7) was 500 nM.
For `COc1ccc(/C=C\c2cc(OC)c(OC)c(OC)c2)cc1O` [Combretastatin A4], the “potency against activated (tumor) versus quiescent (normal) endothelial cells” value [1] was “equally potent against quiescent and activated endothelial cells”.
`COc1ccc2c(C(=O)c3cc(OC)c(OC)c(OC)c3)coc2c1` [Comparator C] gave an IC50 [1] of 10 to 100 nM, an IC50 [2] of 10 to 100 nM and an IC50 (MCF-7) of 55 nM.
With `COc1cc(C(=O)c2c(C)oc3c(OP(=O)([O-])[O-])c(OC)ccc23)cc(OC)c1OC.[Na+].[Na+]` [Example 2, Disodium 6-methoxy-2-methyl-3-(3,4,5-trimethoxybenzoyl)benzofuran-7-yl phosphate] the “Tumour growth (ratio to initial tumour volume)” value [3] was “tumour growth inhibition”, the “Objective responses (CA125 or RECIST) %” value (recurrent ovarian cancer; Dose level 1, 6 accrued) was 68% and the “Objective responses (CA125 or RECIST) N” value (recurrent ovarian cancer; Dose level 1, 6 accrued) was 4. For the same molecule, the “Objective responses (CA125 or RECIST) %” value (recurrent ovarian cancer; Dose level 2a, 3 accrued) was 33%, the “Objective responses (CA125 or RECIST) N” value (recurrent ovarian cancer; Dose level 2a, 3 accrued) was 1 and the “Objective responses (CA125 or RECIST) %” value (recurrent ovarian cancer; Dose level 2b, 6 accrued) was 83%. The “Objective responses (CA125 or RECIST) N” value (recurrent ovarian cancer; Dose level 2b, 6 accrued) was 5, the “Objective responses (CA125 or RECIST) %” value (recurrent ovarian cancer; all dose levels, 15 accrued) was 68% and the “Objective responses (CA125 or RECIST) N” value (recurrent ovarian cancer; all dose levels, 15 accrued) was 10. The “Tumour growth (tumor volume)” value [4] was “tumour growth inhibition”, the “Hypertension Gr 3” value [5, 6] was 1 and the “Neutropenia Gr 3” value [5, 6] was 3. For the same molecule, the “Neutropenia Gr 4” value [5, 6] was 2, the “Number of DLTs” value ([5]; Dose level 1: Example 2 12 mg/m2 + carboplatin AUC4 + gemcitabine 800 mg/m2, 6 patients) was 1 and the “Hypersensitivity Gr 3” value [5, 7] was 1. For the same molecule, the “Neutropenia Gr 3” value [5, 7] was 1, the “Neutropenia Gr 4” value [5, 7] was 2 and the “Thrombocytopenia Gr 4” value [5, 7] was 2. The “Number of DLTs” value ([5]; Dose level 2a: Example 2 16 mg/m2 + carboplatin AUC4 + gemcitabine 800 mg/m2, 3 patients) was 2, the “Anaemia Gr 3” value [5, 8] was 1 and the “Neutropenia Gr 3” value [5, 8] was 5. The “Thrombocytopenia Gr 3” value [5, 8] was 2, the “adverse events or dose limiting toxicities” value ([5]; Dose level 2b: Example 2 12 mg/m2 + carboplatin AUC4 + gemcitabine 1000 mg/m2) was “no adverse events or dose limiting toxicities were observed” and the “Number of DLTs” value ([5]; Dose level 2b: Example 2 12 mg/m2 + carboplatin AUC4 + gemcitabine 1000 mg/m2, 6 patients) was 0. For the same molecule, the safety and tolerability ([5]; combination with combination partners (b) carboplatin and (c) gemcitabine, subjects with recurrent ovarian cancer) was “safe and tolerable” and the recommended dose ([5]; with carboplatin AUC4 and gemcitabine 1000 mg/m^2 (dose level 2b)) was 12 mg/m^2.
`COc1ccc(/C=C\c2cc(OC)c(OC)c(OC)c2)cc1O` [Comparator A] gave an IC50 [1] of 1 to 10 nM, an IC50 [2] of 1 to 10 nM and an IC50 (MCF-7) of 5 nM.
Molecule `COc1ccc(/C=C\c2cc(OC)c(OC)c(OC)c2)cc1OP(=O)(O)O` [Comparator B] has an IC50 [1] of 1 to 10 nM, an IC50 [2] of 1 to 10 nM and an IC50 (MCF-7) of 5 nM.
